Measurements from patent publication US5324648A, “Substituted isocoumarins as serine protease inhibitors and anti-inflammatory agents” (Georgia Tech Research Corporation, priority 1992, dated 1994).
Where two headings read alike, the source gives them in different places.

Tests used:
bovine thrombin = molecular target: T1, bovine thrombin (Bos taurus, UniProt P00735); assay: Inactivation rate of bovine thrombin; format: biochemical; conditions: Table VIII; pH 7.5, 25° C; [I] 1.2-54 μM; read-out: kobs/[I]
T1 construct: bovine thrombin
Description: (§1) Inactivation rates of serine proteases by substituted isocoumarins were measured by the incubation method. An aliquot of inhibitor (25 or 50 μl) in Me2 SO was added to a buffered enzyme solution (0.01-2.3 μM) to initiate the inactivation. Aliquots (50 μl) were withdrawn at various intervals and the residual enzymatic activity was measured. Me2 SO concentration in the reaction mixture was 8-12% (v/v). 0.1 Hepes, 0.01M CaCl2, pH 7.5 buffer was utilized for trypsin and coagulation enzymes. 0.1M Hepes, 0.5M NaCl, pH 7.5 was utilized for other serine proteases. The inhibitor concentrations are shown in all the tables. Peptide thioesters or peptide nitroanilides with appropriate sequence were used as substrates for various serine proteases. All peptide thioester hydrolysis rates were measured with assay mixtures containing 4,4'-dithiodipyridine (ε324 =19800M^-1 cm^-1; Grasetti & Murray, Arch. Biochem. Biophys. 119, pp 41-49 (1967)). Peptide 4-nitroanilide nitroanilide hydrolysis was measured at 410 nm (ε410 =8800M^-1 cm^-1; Erlanger et al., Arch. Biochem. Biophys. 95, pp 271-278 (1961)). First order inactivation rate constant (kobs) were obtained from plots of ln (vt /vo) vs time, and the correlation coefficients were greater than 0.98.
(§2) ^a Conditions were as 0.1M Hepes, 0.01M CaCl2, pH 7.5 and 8-12%
(§3) Me2 SO and 25° C. Rate constants were measured by incubation
(§4) method unless otherwise noted. An aliquot of inhibitor was added to an
(§5) enzyme solution and aliquots removed with time and assayed for remaining
(§6) enzymatic activity. Firstorder rate constants, kobs were obtained
(§7) from the plots of ln(vt /vo) versus time.
(§8) ^a Inhibition rates were measured in 0.1M Hepes, 0.01M CaCl2, pH
(§9) 7.5 buffer, 8% Me2 SO and at 25° C.

human factor Xa = molecular target: T2, human factor Xa (Homo sapiens, UniProt P00742); assay: Inactivation rate of human factor Xa; format: biochemical; conditions: Table VIII; pH 7.5, 25° C; [I] 3.6-44 μM; read-out: kobs/[I]
T2 construct: human factor Xa
Description: as §1, §2, §3, §4, §5, §6, §7, §8, §9

human thrombin = molecular target: T3, human thrombin (Homo sapiens, UniProt P00734); assay: Inactivation rate of human thrombin; format: biochemical; conditions: Table VIII; pH 7.5, 25° C; [I] 1.2-54 μM; read-out: kobs/[I]
T3 construct: human thrombin
Description: as §1, §8, §9

human lung tryptase = assay: Inactivation rate of human lung tryptase; format: biochemical; conditions: Table IX; for percentage of inhibition: not time dependent, at 0.34-5.0 μM; for kobs/[I]: pH 7.5, 25° C, [I] 0.42-0.47 μM
Description: as §1
^a Inactivation rates were measured at 0.1M Hepes, 0.5M NaCl, pH 7.5
buffer, 8% Me2 SO and 25° C.
as §8
(§10) 7.5 buffer for human plasmin; 25 mM Phosphate, 0.5M NaCl, 1 mM EDTA, pH
(§11) 7.5 buffer for rat skin tryptase and 0.1M Hepes, 0.5M NaCl, pH 7.5 for
(§12) human lung tryptase, human skin tryptase and rt-PA. All enzymes were
(§13) assayed with ZArg-SBzl (0.07 mM) in the presence of 4,4dithiodipyridine
(§14) (0.33 mM). Reaction mixtures contained 8% Me2 SO and assays were […]

rat skin tryptase = molecular target: T4, rat skin tryptase (Rattus norvegicus, UniProt P27435); assay: Inactivation rate of rat skin tryptase; format: biochemical; conditions: pH 7.5, Table IX; pH 7.5, 25° C; [I] 0.42-0.51 μM; read-out: kobs/[I]
T4 construct: from tissue; host or cells: rat skin
Description: as §1
^b Inactivation rates were measured at 25 mM phosphate, 0.5M NaCl, 1
mM EDTA, pH 7.5 buffer, 9% Me2 SO and 25° C.
as §8, §10, §11, §12, §13, §14

[1] = molecular target: T5, porcine pancreatic elastase (PPE) (Sus scrofa, UniProt P00772); assay: Inactivation of porcine pancreatic elastase (PPE); format: biochemical; conditions: Table X; after 20 min incubation
T5 construct: from tissue; host or cells: porcine pancreas (from the name)

[2] = molecular target: T6, human leukocyte elastase (HLE) (Homo sapiens, UniProt P08246); assay: Inactivation of human leukocyte elastase (HLE); format: biochemical; conditions: Table X; pH 7.5, 25° C; [I] 2.1-42 μM; read-out: kobs/[I]
T6 construct: from tissue; host or cells: human leukocytes (from the name)
T6 sequence (P08246 30-267): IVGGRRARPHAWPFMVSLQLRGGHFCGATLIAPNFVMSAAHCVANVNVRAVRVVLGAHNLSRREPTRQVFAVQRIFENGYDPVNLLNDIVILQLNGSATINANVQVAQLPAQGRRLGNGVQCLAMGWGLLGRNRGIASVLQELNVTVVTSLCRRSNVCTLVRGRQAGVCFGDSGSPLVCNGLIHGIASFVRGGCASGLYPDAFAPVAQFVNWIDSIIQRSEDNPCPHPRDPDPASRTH

chymotrypsin = chymotrypsin (Bos taurus, UniProt P00766); assay: Inactivation of chymotrypsin; format: biochemical, bovine; conditions: Table X, read-out: kobs/[I]
cathepsin G = molecular target: T7, cathepsin G (Homo sapiens, UniProt P08311); assay: Inactivation of cathepsin G; format: biochemical; conditions: Table X; pH 7.5, 25° C; [I] 33-46 μM; read-out: kobs/[I]
T7 construct: from tissue; host or cells: human leukocytes
T7 sequence (P08311 21-255): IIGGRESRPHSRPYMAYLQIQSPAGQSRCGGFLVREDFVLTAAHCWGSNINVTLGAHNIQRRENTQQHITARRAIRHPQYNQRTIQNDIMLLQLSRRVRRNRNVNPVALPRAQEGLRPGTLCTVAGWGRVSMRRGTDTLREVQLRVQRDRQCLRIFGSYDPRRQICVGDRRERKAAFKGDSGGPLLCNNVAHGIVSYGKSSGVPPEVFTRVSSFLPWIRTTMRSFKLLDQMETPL
Description: Inactivation rates of serine proteases by substituted isocoumarins were measured by the incubation method. An aliquot of inhibitor (25 or 50 μl) in Me2 SO was added to a buffered enzyme solution (0.01-2.3 μM) to initiate the inactivation. Aliquots (50 μl) were withdrawn at various intervals and the residual enzymatic activity was measured. Me2 SO concentration in the reaction mixture was 8-12% (v/v). 0.1 Hepes, 0.01M CaCl2, pH 7.5 buffer was utilized for trypsin and coagulation enzymes. 0.1M Hepes, 0.5M NaCl, pH 7.5 was utilized for other serine proteases. […] Peptide thioesters or peptide nitroanilides with appropriate sequence were used as substrates for various serine proteases. All peptide thioester hydrolysis rates were measured with assay mixtures containing 4,4'-dithiodipyridine (ε324 =19800M^-1 cm^-1 ; Grasetti & Murray, Arch. Biochem. Biophys. 119, pp 41-49 (1967)). Peptide 4-nitroanilide nitroanilide hydrolysis was measured at 410 nm (ε410 =8800M^-1 cm^-1 ; Erlanger et al., Arch. Biochem. Biophys. 95, pp 271-278 (1961)). First order inactivation rate constant (kobs) were obtained from plots of ln (vt /vo) vs time, and the correlation coefficients were greater than 0.98.
^a Inactivation rates were measured at 0.1M Hepes, 0.5 NaCl, pH 7.5,
8-12% Me2 SO and 25° C. by incubation method.
and assayed for remaining activity.
^a Inhibition rates were measured in 0.1M Hepes, 0.05M NaCl, pH 7.5
buffer, 8-9% Me2 SO and at 25° C.
Me2 SO, pH 7,5 and at 25° C.
^a Inhibition was measured in 0.1M Hepes, 0.5M NaCl, pH 7.5 buffer,
5-10% Me2 SO and at 25° C. Suc--Val--Pro--Phe--NA (0.48 mM)
was used as the substrate for chymotrypsin and cat G.

[3] = molecular target: recombinant human tissue plasminogen activator (Homo sapiens, UniProt P00750); assay: Inactivation rate of recombinant human tissue plasminogen activator; format: biochemical; conditions: for percentage of inhibition: Table IX, not time dependent, at 0.34-5.0 μM; for kinact/KI: pH 7.5, Table IX, pH 7.5, 25° C, [I] 3.5-5.0 μM, read-out: kobs/[I]
Description: as §1
^a Inactivation constants were measured at 0.1M Hepes, 0.5M NaCl (or
as §8, §10, §11, §12, §13, §14

bovine trypsin = molecular target: T8, bovine trypsin (Bos taurus, UniProt P00760); assay: Inactivation rate of bovine trypsin; format: biochemical; conditions: Table VIII; pH 7.5, 25° C; [I] 1.1-4.6 μM; read-out: kobs/[I]
T8 sequence (P00760 24-246): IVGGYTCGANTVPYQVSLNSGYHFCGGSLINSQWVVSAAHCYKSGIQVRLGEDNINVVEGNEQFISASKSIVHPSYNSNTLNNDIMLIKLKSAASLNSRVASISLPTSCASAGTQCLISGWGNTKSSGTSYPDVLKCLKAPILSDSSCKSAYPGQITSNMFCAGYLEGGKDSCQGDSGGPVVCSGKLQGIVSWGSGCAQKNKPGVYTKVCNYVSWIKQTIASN
Description: as §1, §2, §3, §4, §5, §6, §7, §8, §9

[4] = Spontaneous hydrolysis in Hepes buffer; format: physicochemical; conditions: 0.1 Hepes, 0.5M NaCl, pH 7.5, 9% Me2SO, 25° C
Description: ^a Conditions were 0.1 Hepes, 0.5M NaCl, pH 7.5 and 9% Me2 SO at
25° C. Spontaneous hydrolysis rates were measured
spectrophotometrically by monitoring the decrease in absorbance due to th
isocoumarin ring system (wavelength 335-380 nm) using the firstorder rate

human factor XIIa = molecular target: T9, human factor XIIa (Homo sapiens, UniProt P00748); assay: Inactivation rate of human factor XIIa; format: biochemical; conditions: Table VIII; pH 7.5, 25° C; [I] 3.6-4.9 μM; read-out: kobs/[I]
T9 construct: human factor XIIa
T9 sequence (P00748 373-615 limits assumed): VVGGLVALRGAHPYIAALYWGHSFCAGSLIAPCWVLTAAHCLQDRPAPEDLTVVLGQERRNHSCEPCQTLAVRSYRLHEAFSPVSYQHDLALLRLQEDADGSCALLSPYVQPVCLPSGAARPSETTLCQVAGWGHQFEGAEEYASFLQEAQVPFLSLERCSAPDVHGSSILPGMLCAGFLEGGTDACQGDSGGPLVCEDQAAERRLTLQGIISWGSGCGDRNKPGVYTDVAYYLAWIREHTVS
T9 sequence (P00748 20-372 partner limits assumed): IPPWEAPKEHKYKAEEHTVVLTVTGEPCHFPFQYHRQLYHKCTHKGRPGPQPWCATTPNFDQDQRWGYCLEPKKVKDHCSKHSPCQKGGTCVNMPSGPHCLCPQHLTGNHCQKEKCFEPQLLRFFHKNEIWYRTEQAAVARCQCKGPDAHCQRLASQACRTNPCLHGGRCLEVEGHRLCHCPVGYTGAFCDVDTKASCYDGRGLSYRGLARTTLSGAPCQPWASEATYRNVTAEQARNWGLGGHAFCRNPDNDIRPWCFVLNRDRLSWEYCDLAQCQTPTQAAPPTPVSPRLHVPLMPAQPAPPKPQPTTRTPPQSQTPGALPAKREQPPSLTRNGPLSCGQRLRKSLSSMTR
Description: as §1, §2, §3, §4, §5, §6, §7, §8, §9

T4 sequence (P27435 29-273): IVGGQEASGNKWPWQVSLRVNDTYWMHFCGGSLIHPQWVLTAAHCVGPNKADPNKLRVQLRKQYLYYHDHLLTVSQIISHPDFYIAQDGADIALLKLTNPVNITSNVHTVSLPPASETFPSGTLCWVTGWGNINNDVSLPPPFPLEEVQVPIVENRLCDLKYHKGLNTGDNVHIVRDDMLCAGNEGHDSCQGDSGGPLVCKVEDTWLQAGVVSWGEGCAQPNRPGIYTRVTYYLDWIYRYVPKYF
T2 sequence (P00742 235-488 limits assumed): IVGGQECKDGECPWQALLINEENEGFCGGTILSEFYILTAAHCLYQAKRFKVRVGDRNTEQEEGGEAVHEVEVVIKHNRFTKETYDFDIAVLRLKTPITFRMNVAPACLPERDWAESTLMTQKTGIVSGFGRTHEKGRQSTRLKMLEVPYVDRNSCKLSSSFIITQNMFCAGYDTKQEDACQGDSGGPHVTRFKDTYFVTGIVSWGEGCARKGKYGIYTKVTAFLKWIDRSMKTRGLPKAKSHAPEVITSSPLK
T2 sequence (P00742 41-179 partner limits assumed): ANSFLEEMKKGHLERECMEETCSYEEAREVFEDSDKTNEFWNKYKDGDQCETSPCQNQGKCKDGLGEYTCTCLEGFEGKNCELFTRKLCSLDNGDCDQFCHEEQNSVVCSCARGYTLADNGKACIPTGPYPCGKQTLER
Sequence of recombinant human tissue plasminogen activator (P00750 36-562): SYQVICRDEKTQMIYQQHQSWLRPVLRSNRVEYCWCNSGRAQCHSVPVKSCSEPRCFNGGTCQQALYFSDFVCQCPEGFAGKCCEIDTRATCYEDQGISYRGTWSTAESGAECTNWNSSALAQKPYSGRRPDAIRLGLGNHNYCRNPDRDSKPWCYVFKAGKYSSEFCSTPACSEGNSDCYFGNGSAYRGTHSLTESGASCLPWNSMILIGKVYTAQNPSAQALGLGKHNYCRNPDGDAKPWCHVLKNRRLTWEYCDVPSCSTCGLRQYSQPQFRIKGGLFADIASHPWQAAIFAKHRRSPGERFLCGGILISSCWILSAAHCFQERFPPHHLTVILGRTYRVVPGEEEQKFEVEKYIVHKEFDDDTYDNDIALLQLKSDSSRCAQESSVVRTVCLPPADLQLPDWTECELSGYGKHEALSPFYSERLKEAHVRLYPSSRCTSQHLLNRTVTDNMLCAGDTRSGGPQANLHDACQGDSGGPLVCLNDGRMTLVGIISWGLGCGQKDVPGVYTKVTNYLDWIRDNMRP
T5 sequence (P00772 27-266): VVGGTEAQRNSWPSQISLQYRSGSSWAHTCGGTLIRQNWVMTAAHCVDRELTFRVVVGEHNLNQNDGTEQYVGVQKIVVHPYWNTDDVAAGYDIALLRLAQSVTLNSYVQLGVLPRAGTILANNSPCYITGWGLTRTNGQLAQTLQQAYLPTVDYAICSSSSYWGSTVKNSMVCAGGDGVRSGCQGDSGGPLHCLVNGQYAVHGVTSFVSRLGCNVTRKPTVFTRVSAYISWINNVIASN

kinact/KI (bovine thrombin)	kinact/KI (human factor Xa)	kinact/KI (human thrombin)	percentage of inhibition (human lung tryptase)	kinact/KI (rat skin tryptase)	percentage of inhibition [1]	kinact/KI [2]	kinact/KI (chymotrypsin; pH 7.5, 25° C, [I] 0.9-43 μM)	kinact/KI (cathepsin G)	percentage of inhibition [3]	kinact/KI (bovine trypsin)	kinact/KI [3]	t1/2 for spontaneous hydrolysis [4]	kinact/KI (human factor XIIa)	kobs/[I] (human lung tryptase)	kinact/KI (chymotrypsin; pH 7.5, second order rate, equal molar enzyme and inhibitor)	Compound
1070 M⁻¹ s⁻¹	1490 M⁻¹ s⁻¹	880 M⁻¹ s⁻¹	–	–	–	–	–	–	–	–	–	–	–	–	–	C[C@H](N)C(=O)N[C@@H](C)C(=O)Nc1ccc2c(Cl)c(OCCSC(=N)N)oc(=O)c2c1 [Ala--Ala--NH-CiTEtOIC, 7-(L-alanyl-L-alanylamino)-4-chloro-3-(2-isothiureidoethoxy)isocoumarin]
1040 M⁻¹ s⁻¹	–	1090 M⁻¹ s⁻¹	44%	135000 M⁻¹ s⁻¹	12%	3100 M⁻¹ s⁻¹	220 M⁻¹ s⁻¹	35 M⁻¹ s⁻¹	65%	–	–	–	–	–	–	CC(C)(C)OC(=O)N[C@H](Cc1ccccc1)C(=O)Nc1ccc2c(Cl)c(OCCSC(=N)N)oc(=O)c2c1 [Boc-D-Phe--NH-CiTEtOIC, 7-(N-t-butyloxycarbonyl-D-phenylalanylamino)-4-chloro-3-(2-isothiureidoethoxy)isocoumarin]
1090 M⁻¹ s⁻¹	1620 M⁻¹ s⁻¹	1140 M⁻¹ s⁻¹	–	–	–	–	–	–	–	–	–	–	–	–	–	CC(C)(C)OC(=O)N[C@@H](Cc1ccccc1)C(=O)Nc1ccc2c(Cl)c(OCCSC(=N)N)oc(=O)c2c1 [Boc-L-Phe--NH-CiTEtOIC, 7-(N-t-butyloxycarbonyl-L-phenylalanylamino)-4-chloro-3-(2-isothiureidoethoxy)isocoumarin]
420 M⁻¹ s⁻¹	–	310 M⁻¹ s⁻¹	60%	99000 M⁻¹ s⁻¹	–	200 M⁻¹ s⁻¹	5200 M⁻¹ s⁻¹	31 M⁻¹ s⁻¹	–	107000 M⁻¹ s⁻¹	7000 M⁻¹ s⁻¹	1.13 h	–	–	–	CC(=O)Nc1ccc2c(Cl)c(OCCCSC(=N)N)oc(=O)c2c1 [CH3 CONH-CiTPrOIC, 7-(acetylamino)-4-chloro-3-(3-isothiureidopropoxy)isocoumarin]
1280 M⁻¹ s⁻¹	3770 M⁻¹ s⁻¹	1340 M⁻¹ s⁻¹	–	650000 M⁻¹ s⁻¹	–	–	8400 M⁻¹ s⁻¹	53 M⁻¹ s⁻¹	–	–	13000 M⁻¹ s⁻¹	–	107000 M⁻¹ s⁻¹	260,000 M^-1 s^-1	–	N=C(N)SCCOc1oc(=O)c2cc(NC(=O)[C@@H](N)Cc3ccccc3)ccc2c1Cl [L-Phe--NH-CiTEtOIC, 7-(L-phenylalanylamino)-4-chloro-3-(2-isothiureidoethoxy)isocoumarin]
820 M⁻¹ s⁻¹	–	630 M⁻¹ s⁻¹	–	170000 M⁻¹ s⁻¹	–	–	–	–	–	87900 M⁻¹ s⁻¹	15000 M⁻¹ s⁻¹	1.1 h	–	180,000 M^-1 s^-1	–	N=C(N)SCCCOc1oc(=O)c2cc(NC(=O)CCc3ccccc3)ccc2c1Cl [PhCH2 CH2 CONH-CiTPrOIC, 7-(3-phenylpropionylamino)-4-chloro-3-(3-isothiureidopropoxy)isocoumarin]
15800 M⁻¹ s⁻¹	3630 M⁻¹ s⁻¹	6730 M⁻¹ s⁻¹	–	120000 M⁻¹ s⁻¹	–	–	–	–	64%	–	–	–	59000 M⁻¹ s⁻¹	110,000 M^-1 s^-1	–	N=C(N)SCCOc1oc(=O)c2cc(NC(=O)Cc3ccccc3)ccc2c1Cl [PhCH2 CONH-CiTEtOIC, 7-(phenylacetylamino)-4-chloro-3-(2-isothiureidoethoxy)isocoumarin]
600 M⁻¹ s⁻¹	–	610 M⁻¹ s⁻¹	–	145000 M⁻¹ s⁻¹	–	130 M⁻¹ s⁻¹	–	64 M⁻¹ s⁻¹	–	165000 M⁻¹ s⁻¹	9000 M⁻¹ s⁻¹	1.02 h	–	140,000 M^-1 s^-1	260000 M⁻¹ s⁻¹	N=C(N)SCCCOc1oc(=O)c2cc(NC(=O)Cc3ccccc3)ccc2c1Cl [PhCH2 CONH-CiTPrOIC, 7-(phenylacetylamino)-4-chloro-3-(3-isothiureidopropoxy)isocoumarin]
